How the values were obtained:
[1] = system: glioblastoma (GBM) xenografts; settings: Polson et al., 2018; cited from earlier work
[2] = Wurdak et al., 2010; cited from earlier work
neuronal differentiation = settings: rats; Wurdak et al., 2010; cited from earlier work
RKO xenograft = test: RKO colon cancer xenograft tumor growth; format: in vivo, athymic Balb/c nude mice
Experimental: Six-to-eight-week-old female athymic Balb/c nude mice were housed with a temperature-controlled and 12-hour light/12-hour dark cycle environment. For in vivo colon cancer tumor growth, 5×10^6 RKO cells were prepared in 100 μl of DMEM and injected into right flank of female nude mice. Mouse weight and tumor volume were measured twice a week. Tumor volumes were calculated as length×width^2×0.5. Once the tumor volume had reached about 150-175 mm^3, xenografts were randomized into groups (8 mice per group). Animals were treated with vehicle, Compound 80 or oxaliplatin as mentioned in the table. The formulation for vehicle and Compound 80 was 50% PEG400 and 20% Cremophor RH40 final (50% of 40% Cremophor) in Acetate buffer, PH=4. Oxaliplatin was prepared in glucose solution. The mice were sacrificed after around 3 weeks or if the tumors reached a predefined tumor volume cut-off of 2500 mm^3.

MDA-MB-231 xenograft = MDA-MB-231 xenograft tumor growth; format: in vivo, athymic Balb/c nude mice; settings: 20, 25 and 30 mpk BID
Experimental: (§1) Compound 80 was tested in other xenograft models using the following cell lines: triple negative breast cancer cell line, MDA-MB-231, ovarian cancer cell line, SKOV-3 and endometrium cell line, HEC-59. For the SKOV-3 xenograft, 1.5×10^7 SKOV-3 cells in 200 μl of 1:1 DMEM:Matrigel (Thermo Fisher, NJ, USA) and for the MDA-MB-231 xenograft, 1.×10^7 MDA-MB-231 cells in 100 μl of 1:1 DMEM:Matrigel (Thermo Fisher, NJ, USA) for was injected in the right flank of six-to-eight-week-old female athymic Balb/c nude mice. When the tumor volume reached mean of ~200 mm^3 mice for SKOV-3 xenografts and between 150-175 mm^3 for MDA-MB-231 xenografts, mice were randomized in a group of 8, and treatment was initiated vehicle, 20 mpk BID, 25 mpk BID and 30 mpk BID of Compound 80. For the HEC-59 xenografts, 1.×10^7 HEC-59 cells in 100 μl of DMEM (Lonza, NJ, USA) was injected in the right flank of six-to-eight-week-old female athymic Balb/c nude mice. When the tumor volume reached mean of ~150 mm^3 mice were randomized in a group of 8 mice, and treatment was initiated vehicle, 20 mpk BID, 40 mpk QD and 30/40 mpk BID of Compound 80.

SKOV-3 xenograft = SKOV-3 xenograft tumor growth; format: in vivo, athymic Balb/c nude mice; settings: 20, 25 and 30 mpk BID
Experimental: as §1

HEC-59 xenograft = HEC-59 xenograft tumor growth; format: in vivo, athymic Balb/c nude mice; settings: 20 mpk BID, 40 mpk QD, 30/40 mpk BID
Experimental: as §1

ovarian cancer cells = settings: Yao et al., 2014; cited from earlier work
[3] = system: ovarian cancer xenografts; settings: Yao et al., 2014; cited from earlier work

Q: For `CC(C)CNc1ccnc(NCc2csc(-c3ccccc3)n2)n1` [KHS101], which “tumor growth of glioblastoma (GBM) xenografts” value [1] is on record?
A: suppressed

Q: And the oral systemic stability [2]?
A: low oral systemic stability

Q: And the neuronal differentiation (neuronal differentiation)?
A: promote neuronal differentiation

Q: With `C[C@@H]1CN(c2ncc(F)c(Nc3cc(-c4ccc(OC(F)F)cc4)cnn3)n2)C[C@H](C)O1` [Compound 80, 5-(4-(difluoromethoxy)phenyl)-N-(2-((2R,6S)-2,6-dimethylmorpholino)-5-fluoropyrimidin-4-yl)pyridazin-3-amine] as the molecule, how does the “tumor growth inhibition” value (RKO xenograft; RKO xenograft, 20 and 30 mg/kg BID, 50 mg/kg QD, PO) read?
A: strong tumor growth inhibition in a dose-dependent manner

Q: What about the “tumor growth inhibition compared to the standard of care (FIG. 1)” value (RKO xenograft; xenograft model, vs standard of care) of the same molecule?
A: superior tumor growth inhibition

Q: And the “tumor growth inhibition or regression” value (MDA-MB-231 xenograft)?
A: Statistically significant tumor growth inhibition or regression

Q: And the “tumor growth inhibition or regression” value (SKOV-3 xenograft)?
A: Statistically significant tumor growth inhibition or regression

Q: And the “tumor growth inhibition or regression” value (HEC-59 xenograft)?
A: Statistically significant tumor growth inhibition or regression

Q: Which results are given for `CCN(Cc1ccncc1)Cc1c(O)ccc2c(-c3cc4ccccc4oc3=O)cc(=O)oc12` [SPL-B]?
A: centrosome microtubule nucleation (ovarian cancer cells): inhibit the centrosome microtubule nucleation; tumor growth in ovarian cancer xenografts [3]: suppress tumor growth

— US20260216181A1, “COMPOSITIONS AND METHODS FOR TREATING CANCER” (Coiled Therapeutics, Inc., priority 2022, published 2026)
